According to BindingDB's records for doi:10.1074/jbc.M114.573162 (German Institute of Human Nutrition Potsdam-Rehbruecke, 2014):

molecular target: T1, Olfactory receptor class A-like protein 1 (Zebrafish, UniProt A0A0R4IM31); assay: Functional Calcium Imaging Assay; details: pH 7.4
T1 sequence (A0A0R4IM31 whole entry): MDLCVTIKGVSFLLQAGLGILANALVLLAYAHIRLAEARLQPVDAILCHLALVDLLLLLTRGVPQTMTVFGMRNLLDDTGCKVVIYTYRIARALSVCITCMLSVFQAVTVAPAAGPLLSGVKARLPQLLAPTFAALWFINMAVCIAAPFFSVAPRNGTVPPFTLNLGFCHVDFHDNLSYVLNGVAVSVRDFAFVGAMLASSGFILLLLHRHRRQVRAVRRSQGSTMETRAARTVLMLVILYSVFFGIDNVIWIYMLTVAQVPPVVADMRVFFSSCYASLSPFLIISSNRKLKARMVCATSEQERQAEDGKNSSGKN
Description: Briefly, HEK 293T cells stably expressing the G protein-chimera Gα16gust44 were seeded onto 96-well plates coated with 10 μg/ml of poly-D-lysine. The next day cells were transiently transfected with ORA1, ORA2, or human bitter taste receptor TAS2R16 constructs using Lipofectamine 2000 (Invitrogen). After 24 h the cells were washed with buffer C1 (130 mM NaCl, 5 mM KCl, 10 mM Hepes, pH 7.4, 2 mM CaCl2, 10 mM glucose), and loaded with the calcium-responsive dye Fluo-4 AM in the presence of 1 mM probenecide, an inhibitor of […]. To remove excessive fluorescence dye, cells were washed three times with buffer C1 and transferred into a fluorometric imaging plate reader (FLIPR, Molecular Devices) for measurement. Test substances were dissolved in C1 buffer and the changes in fluorescence after application of test substances were monitored.

EC50 [µM] | Compound
16.5 | COc1ccc(CC(=O)O)cc1 [4-Methoxyphenylacetic acid]
91.7 | Nc1ccc(CC(=O)O)cc1 [4-Aminophenylacetic acid]
192 | O=C(O)CCc1ccc(O)cc1 [3-(4-Hydroxyphenyl)-propionic acid]
221 | CC(C(=O)O)c1ccc(O)cc1 (stereo not given) [Methyl-4-hydroxyphenylacetic acid]
16.6 | O=C(O)Cc1ccc(Cl)cc1 [2-(4-chlorophenyl)acetic acid]
22.8 | O=C(O)Cc1ccc(O)c(O)c1 [SMR000326727]
14.8 | Cc1ccc(C(=O)CC(=O)O)cc1 [4-Toloylacetic acid]

Compound | EC50 [µM]
O=C(O)Cc1ccc(O)cc1 [2-(4-hydroxyphenyl)acetic acid] | 1.9
O=C(O)Cc1ccccc1 [Phenylacetate, XIX] | 30.5
O=C(O)Cc1ccc2c(c1)OCO2 [3,4-Methylenedioxyphenylacetic acid] | 16
